# Measured values as given in patent US20220281876A1, “DEGRADATION OF BRUTON'S TYROSINE KINASE (BTK) BY CONJUGATION OF BTK INHIBITORS WITH E3 LIGASE LIGAND AND METHODS OF USE” (BEIGENE, LTD., priority 2019, published 2022).
# Target: T1, BTK (Homo sapiens, UniProt Q06187)
# T1 construct: endogenous in cells; host or cells: Ramos cells
# Assay: BTK cell degradation in Ramos cells (total BTK ELISA)
# Type: cell-based
# Conditions: 16 h incubation, FastScan total BTK ELISA
# Outline: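 Ramos cells were treated for 16 h with compounds (7 doses, 5-fold dilution series, 0.1% DMSO). Total BTK in cell lysates was quantified by sandwich ELISA with TMB read-out at 450 nm.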
# T1 sequence (Q06187 whole entry): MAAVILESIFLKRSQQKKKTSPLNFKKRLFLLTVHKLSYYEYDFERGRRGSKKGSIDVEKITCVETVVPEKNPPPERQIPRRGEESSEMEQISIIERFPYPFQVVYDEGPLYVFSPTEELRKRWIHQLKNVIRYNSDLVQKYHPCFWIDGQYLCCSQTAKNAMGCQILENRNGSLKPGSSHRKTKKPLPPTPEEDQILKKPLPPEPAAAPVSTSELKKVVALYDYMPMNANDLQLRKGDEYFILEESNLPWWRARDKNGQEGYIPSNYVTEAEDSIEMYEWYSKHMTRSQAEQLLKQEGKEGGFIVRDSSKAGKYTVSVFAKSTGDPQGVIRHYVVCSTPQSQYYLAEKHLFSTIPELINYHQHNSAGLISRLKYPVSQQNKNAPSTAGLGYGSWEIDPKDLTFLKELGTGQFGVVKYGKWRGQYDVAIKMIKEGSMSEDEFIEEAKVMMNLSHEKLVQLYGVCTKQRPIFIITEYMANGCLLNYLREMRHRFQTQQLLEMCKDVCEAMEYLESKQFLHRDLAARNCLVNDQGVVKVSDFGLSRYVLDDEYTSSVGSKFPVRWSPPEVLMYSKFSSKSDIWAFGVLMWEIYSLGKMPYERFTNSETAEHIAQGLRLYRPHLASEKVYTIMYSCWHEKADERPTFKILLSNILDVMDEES
row,DC50 [nM],SMILES
1,> 10000,"CN(/C=C/C(=O)N1CCC([C@@H]2CCNc3c(C(N)=O)c(-c4ccc(Oc5ccccc5)cc4)nn32)CC1)CCNc1cccc2c1C(=O)N(C1CCC(=O)NC1=O)C2=O (stereo partly drawn) [Example 49, (7S)-7-(1-((E)-3-((2-((2-(2,6-dioxopiperidin-3-yl)-1,3-dioxoisoindolin-4-yl)amino)ethyl)(methyl)amino)acryloyl)piperidin-4-yl)-2-(4-phenoxyphenyl)-4,5,6,7-tetrahydropyrazolo[1,5-a]pyrimidine-3-carboxamide]"
2,> 10000,"CN(C/C=C/C(=O)N1CCC([C@@H]2CCNc3c(C(N)=O)c(-c4ccc(Oc5ccccc5)cc4)nn32)CC1)CCCCCCN1C(=O)CCC(N2C(=O)c3cccc(N)c3C2=O)C1=O (stereo partly drawn) [Example 50, (7S)-7-(1-((E)-4-((6-(3-(4-amino-1,3-dioxoisoindolin-2-yl)-2,6-dioxopiperidin-1-yl)hexyl)(methyl)amino)but-2-enoyl)piperidin-4-yl)-2-(4-phenoxyphenyl)-4,5,6,7-tetrahydropyrazolo[1,5-a]pyrimidine-3-carboxamide]"
3,144,"CN(C/C=C/C(=O)N1CCC([C@@H]2CCNc3c(C(N)=O)c(-c4ccc(Oc5ccccc5)cc4)nn32)CC1)CCOCCOCCOCCN1C(=O)CCC(N2Cc3c(N)cccc3C2=O)C1=O (stereo partly drawn) [Example 52, (7S)-7-(1-((E)-1-(3-(4-amino-1-oxoisoindolin-2-yl)-2,6-dioxopiperidin-1-yl)-12-methyl-3,6,9-trioxa-12-azahexadec-14-en-16-oyl)piperidin-4-yl)-2-(4-phenoxyphenyl)-4,5,6,7-tetrahydropyrazolo[1,5-a]pyrimidine-3-carboxamide]"
4,2360,"NC(=O)c1c(-c2ccc(Oc3ccccc3)cc2)nn2c1NCC[C@H]2C1CCN(C(=O)CCN2CCN(c3ccc(CNC(=O)CCN4C(=O)CCC(N5Cc6c(N)cccc6C5=O)C4=O)cc3)CC2)CC1 (stereo partly drawn) [Example 56, (7S)-7-(1-(3-(4-(4-((3-(3-(4-amino-1-oxoisoindolin-2-yl)-2,6-dioxopiperidin-1-yl)propanamido)methyl)phenyl)piperazin-1-yl)propanoyl)piperidin-4-yl)-2-(4-phenoxyphenyl)-4,5,6,7-tetrahydropyrazolo[1,5-a]pyrimidine-3-carboxamide]"
5,1680,"NC(=O)c1c(-c2ccc(Oc3ccccc3)cc2)nn2c1NCC[C@H]2C1CCN(C(=O)CCN2CCC(CN3CCN(c4ccc5c(c4)C(=O)N(C4CCC(=O)NC4=O)C5=O)CC3)CC2)CC1 (stereo partly drawn) [Example 95, (7S)-7-(1-(3-(4-((4-(2-(2,6-dioxopiperidin-3-yl)-1,3-dioxoisoindolin-5-yl)piperazin-1-yl)methyl)piperidin-1-yl)propanoyl)piperidin-4-yl)-2-(4-phenoxyphenyl)-4,5,6,7-tetrahydropyrazolo[1,5-a]pyrimidine-3-carboxamide]"
6,205,"NC(=O)c1c(-c2ccc(Oc3ccccc3)cc2)nn2c1NCC[C@H]2C1CCN(C(=O)CCCC2CCC(N3CCN(c4ccc5c(c4)C(=O)N(C4CCC(=O)NC4=O)C5=O)CC3)CC2)CC1 (stereo partly drawn) [Example 148, (7S)-7-(1-(4-(4-(4-(2-(2,6-dioxopiperidin-3-yl)-1,3-dioxoisoindolin-5-yl)piperazin-1-yl)cyclohexyl)butanoyl)piperidin-4-yl)-2-(4-phenoxyphenyl)-4,5,6,7-tetrahydropyrazolo[1,5-a]pyrimidine-3-carboxamide]"

# Second part, the compound before the results:
row,SMILES,DC50 [nM]
1,"CN(C/C=C/C(=O)N1CCC([C@@H]2CCNc3c(C(N)=O)c(-c4ccc(Oc5ccccc5)cc4)nn32)CC1)CCCCCCN1C(=O)CCC(N2Cc3c(N)cccc3C2=O)C1=O (stereo partly drawn) [Example 51, (7S)-7-(1-((E)-4-((6-(3-(4-amino-1-oxoisoindolin-2-yl)-2,6-dioxopiperidin-1-yl)hexyl)(methyl)amino)but-2-enoyl)piperidin-4-yl)-2-(4-phenoxyphenyl)-4,5,6,7-tetrahydropyrazolo[1,5-a]pyrimidine-3-carboxamide]",> 10000
2,"CN(C/C=C/C(=O)N1CCC([C@@H]2CCNc3c(C(N)=O)c(-c4ccc(Oc5ccccc5)cc4)nn32)CC1)CCCN1C(=O)CCC(N2Cc3c(N)cccc3C2=O)C1=O (stereo partly drawn) [Example 54, (7S)-7-(1-((E)-4-((3-(3-(4-amino-1-oxoisoindolin-2-yl)-2,6-dioxopiperidin-1-yl)propyl)(methyl)amino)but-2-enoyl)piperidin-4-yl)-2-(4-phenoxyphenyl)-4,5,6,7-tetrahydropyrazolo[1,5-a]pyrimidine-3-carboxamide]",428
3,"CN(C/C=C/C(=O)N1CCC([C@@H]2CCNc3c(C(N)=O)c(-c4ccc(Oc5ccccc5)cc4)nn32)CC1)CCOCCOCCN1C(=O)CCC(N2Cc3c(N)cccc3C2=O)C1=O (stereo partly drawn) [Example 55, (7S)-7-(1-((E)-4-((2-(2-(2-(3-(4-amino-1-oxoisoindolin-2-yl)-2,6-dioxopiperidin-1-yl)ethoxy)ethoxy)ethyl)(methyl)amino)but-2-enoyl)piperidin-4-yl)-2-(4-phenoxyphenyl)-4,5,6,7-tetrahydropyrazolo[1,5-a]pyrimidine-3-carboxamide]",382
4,"NC(=O)c1c(-c2ccc(Oc3ccccc3)cc2)nn2c1NCC[C@H]2C1CCN(C(=O)CCc2ccc(NC(=O)CNc3ccc4c(c3)C(=O)N(C3CCC(=O)NC3=O)C4=O)cc2)CC1 (stereo partly drawn) [Example 57, (7S)-7-(1-(3-(4-(2-((2-(2,6-dioxopiperidin-3-yl)-1,3-dioxoisoindolin-5-yl)amino)acetamido)phenyl)propanoyl)piperidin-4-yl)-2-(4-phenoxyphenyl)-4,5,6,7-tetrahydropyrazolo[1,5-a] pyrimidine-3-carboxamide]",> 10000
5,"NC(=O)c1c(-c2ccc(Oc3ccccc3)cc2)nn2c1NCC[C@H]2C1CCN(C(=O)CCCc2ccc(NC(=O)CNc3ccc4c(c3)C(=O)N(C3CCC(=O)NC3=O)C4=O)cc2)CC1 (stereo partly drawn) [Example 58, (7S)-7-(1-(4-(4-(2-((2-(2,6-dioxopiperidin-3-yl)-1,3-dioxoisoindolin-5-yl)amino)acetamido)phenyl)butanoyl)piperidin-4-yl)-2-(4-phenoxyphenyl)-4,5,6,7-tetrahydropyrazolo[1,5-a] pyrimidine-3-carboxamide]",28
6,"NC(=O)c1c(-c2ccc(Oc3ccccc3)cc2)nn2c1NCC[C@H]2C1CCN(C(=O)CCN2CCN(C(=O)CNc3ccc4c(c3)C(=O)N(C3CCC(=O)NC3=O)C4=O)CC2)CC1 (stereo partly drawn) [Example 63, (7S)-7-(1-(3-(4-((2-(2,6-dioxopiperidin-3-yl)-1,3-dioxoisoindolin-5-yl)glycyl)piperazin-1-yl)propanoyl)piperidin-4-yl)-2-(4-phenoxyphenyl)-4,5,6,7-tetrahydropyrazolo[1,5-a]pyrimidine-3-carboxamide]",2.9
7,"CN(CCC(=O)N1CCC([C@@H]2CCNc3c(C(N)=O)c(-c4ccc(Oc5ccccc5)cc4)nn32)CC1)CC1CCN(c2ccc3c(c2)C(=O)N(C2CCC(=O)NC2=O)C3=O)CC1 (stereo partly drawn) [Example 64, (7S)-7-(1-(3-(((1-(2-(2,6-dioxopiperidin-3-yl)-1,3-dioxoisoindolin-5-yl)piperidin-4-yl)methyl)(methyl)amino)propanoyl)piperidin-4-yl)-2-(4-phenoxyphenyl)-4,5,6,7-tetrahydropyrazolo[1,5-a]pyrimidine-3-carboxamide]",35
